The source of these data is ChEMBL document CHEMBL1145663, “Studies on iridoid-related compounds, II. The structure and antimicrobial activity of aglucones of galioside and gardenoside” (1983).

Converted amounts (≈) assume the structure as drawn. The source made the active and inactive calls. No cut-off for these calls is given here.

The subject of one experiment is Staphylococcus aureus. In words: Antimicrobial activity against Staphylococcus aureus after 20 hrs by agar dilution method. It counts as functional. In general terms: In agar dilution the substance is mixed into plates at graded concentrations.
A further experiment relates to Klebsiella pneumoniae. Briefly: Antimicrobial activity against Klebsiella pneumoniae after 20 hrs by agar dilution method. Type of experiment: functional.

As to `COC(=O)C1=CO[C@@H](O[C@@H]2O[C@H](CO)[C@@H](O)[C@H](O)[C@H]2O)[C@H]2[C@@H]1C=C[C@]2(O)CO`, the outcome with Staphylococcus aureus and with Klebsiella pneumoniae was Active.
The term MIC denotes the lowest concentration found to suppress growth. In the case of `COC(=O)C1=CO[C@@H](O)[C@H]2[C@@H]1C=C[C@]2(O)CO`, the MIC against Staphylococcus aureus was 125 µg/mL (≈ 516 µM); in the experiment with Klebsiella pneumoniae, 1000 µg/mL (≈ 4130 µM).
